This passage reports inhibition results from patent publication US20160289186A1, “FLUOROMETHYL-SUBSTITUTED PYRROLE CA[…]” (Grunenthal GmbH, priority 2013, published 2016).

This test addresses T1, Human CaV2.2 channels (Homo sapiens, UniProt Q00975).
T1 construct: expressed in transfected cells; host or cells: HEK293
The test can be described thus: Fluorescent (FLIPR) assay for CaV2.2 channels using potassium depolarization to induce channel opening. In kind it is cell-based. The settings on record: 3 μM compound; 30 mM KCl assay buffer (inactivated channel state); HEK293 cells stably expressing human CaV2.2; read-out: Activity Category: %-Inhib (CaV2.2) @3 μM @30 mM KCl. The essentials:
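HEK293 cells stably co-expressing human CaV2.2 with α2δ and β subunits plus Kir2.3, Fluo-4 loaded; compounds preincubated 15 min at 25 °C in 1 mM or 30 mM KCl buffer (inactivated state), pH 7.4. Depolarized by KCl addition; baseline-normalized peak fluorescence (ex 480/em 535 nm) gave inhibition.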

SMILES strings stand for the structures.

T1 sequence (Q00975 whole entry): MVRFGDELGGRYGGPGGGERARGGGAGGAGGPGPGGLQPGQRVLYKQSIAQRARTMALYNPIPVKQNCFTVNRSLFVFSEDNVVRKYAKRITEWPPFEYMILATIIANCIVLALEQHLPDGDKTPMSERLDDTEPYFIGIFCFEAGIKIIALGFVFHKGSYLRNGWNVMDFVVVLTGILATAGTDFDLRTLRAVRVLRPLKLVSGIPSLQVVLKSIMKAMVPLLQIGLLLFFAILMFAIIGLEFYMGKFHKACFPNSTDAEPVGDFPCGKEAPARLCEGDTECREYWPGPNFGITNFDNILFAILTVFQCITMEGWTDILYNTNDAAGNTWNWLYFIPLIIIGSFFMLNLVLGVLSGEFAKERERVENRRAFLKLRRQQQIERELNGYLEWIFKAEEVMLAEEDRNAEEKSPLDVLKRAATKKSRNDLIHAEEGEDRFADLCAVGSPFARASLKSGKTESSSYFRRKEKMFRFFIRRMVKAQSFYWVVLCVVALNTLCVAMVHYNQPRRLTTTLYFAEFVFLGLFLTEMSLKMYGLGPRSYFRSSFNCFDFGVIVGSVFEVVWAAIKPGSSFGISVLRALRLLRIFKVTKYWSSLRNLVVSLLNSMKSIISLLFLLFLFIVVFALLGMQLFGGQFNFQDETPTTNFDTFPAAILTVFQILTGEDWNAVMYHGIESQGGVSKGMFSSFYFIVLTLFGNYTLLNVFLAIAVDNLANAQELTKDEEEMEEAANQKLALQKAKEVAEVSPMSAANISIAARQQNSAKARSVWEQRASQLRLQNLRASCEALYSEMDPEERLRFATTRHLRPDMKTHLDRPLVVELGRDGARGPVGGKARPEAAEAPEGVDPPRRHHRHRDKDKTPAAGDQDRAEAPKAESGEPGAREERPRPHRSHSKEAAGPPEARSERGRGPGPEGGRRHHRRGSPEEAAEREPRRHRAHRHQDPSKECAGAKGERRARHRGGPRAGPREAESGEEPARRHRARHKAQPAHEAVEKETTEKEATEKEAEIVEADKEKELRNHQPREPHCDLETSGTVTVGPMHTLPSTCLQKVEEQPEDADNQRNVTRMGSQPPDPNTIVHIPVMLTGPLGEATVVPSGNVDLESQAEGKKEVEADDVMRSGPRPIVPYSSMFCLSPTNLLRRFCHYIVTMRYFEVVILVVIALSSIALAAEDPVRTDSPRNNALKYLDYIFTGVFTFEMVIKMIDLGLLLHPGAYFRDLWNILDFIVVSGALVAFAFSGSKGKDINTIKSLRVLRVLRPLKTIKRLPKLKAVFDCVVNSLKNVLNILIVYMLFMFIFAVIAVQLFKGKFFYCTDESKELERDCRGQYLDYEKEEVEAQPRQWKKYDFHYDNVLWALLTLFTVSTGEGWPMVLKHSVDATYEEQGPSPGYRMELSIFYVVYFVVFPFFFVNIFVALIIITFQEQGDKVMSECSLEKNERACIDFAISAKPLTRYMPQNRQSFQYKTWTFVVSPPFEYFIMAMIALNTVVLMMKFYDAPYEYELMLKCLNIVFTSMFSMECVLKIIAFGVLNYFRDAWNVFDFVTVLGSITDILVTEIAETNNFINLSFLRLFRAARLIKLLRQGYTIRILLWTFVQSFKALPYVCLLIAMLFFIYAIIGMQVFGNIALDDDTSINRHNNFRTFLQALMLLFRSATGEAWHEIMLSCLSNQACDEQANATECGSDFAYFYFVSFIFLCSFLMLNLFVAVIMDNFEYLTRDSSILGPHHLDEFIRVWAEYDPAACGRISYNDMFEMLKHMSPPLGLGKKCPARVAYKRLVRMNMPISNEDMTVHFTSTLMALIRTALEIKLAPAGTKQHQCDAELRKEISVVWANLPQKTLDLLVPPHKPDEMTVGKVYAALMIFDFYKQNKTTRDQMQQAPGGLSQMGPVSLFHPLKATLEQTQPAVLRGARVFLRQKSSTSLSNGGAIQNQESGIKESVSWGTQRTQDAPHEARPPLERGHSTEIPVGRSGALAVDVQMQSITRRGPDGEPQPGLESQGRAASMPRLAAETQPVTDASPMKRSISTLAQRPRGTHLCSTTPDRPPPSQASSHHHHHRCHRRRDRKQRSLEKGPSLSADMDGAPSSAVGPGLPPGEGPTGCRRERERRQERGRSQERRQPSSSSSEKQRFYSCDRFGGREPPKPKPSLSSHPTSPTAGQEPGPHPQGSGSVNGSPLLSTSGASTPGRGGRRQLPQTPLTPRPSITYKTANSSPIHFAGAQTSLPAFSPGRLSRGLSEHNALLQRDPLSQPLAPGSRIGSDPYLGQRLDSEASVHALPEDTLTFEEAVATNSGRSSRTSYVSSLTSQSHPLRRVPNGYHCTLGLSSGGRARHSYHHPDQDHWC
T1 sequence (P54284 whole entry, further chain): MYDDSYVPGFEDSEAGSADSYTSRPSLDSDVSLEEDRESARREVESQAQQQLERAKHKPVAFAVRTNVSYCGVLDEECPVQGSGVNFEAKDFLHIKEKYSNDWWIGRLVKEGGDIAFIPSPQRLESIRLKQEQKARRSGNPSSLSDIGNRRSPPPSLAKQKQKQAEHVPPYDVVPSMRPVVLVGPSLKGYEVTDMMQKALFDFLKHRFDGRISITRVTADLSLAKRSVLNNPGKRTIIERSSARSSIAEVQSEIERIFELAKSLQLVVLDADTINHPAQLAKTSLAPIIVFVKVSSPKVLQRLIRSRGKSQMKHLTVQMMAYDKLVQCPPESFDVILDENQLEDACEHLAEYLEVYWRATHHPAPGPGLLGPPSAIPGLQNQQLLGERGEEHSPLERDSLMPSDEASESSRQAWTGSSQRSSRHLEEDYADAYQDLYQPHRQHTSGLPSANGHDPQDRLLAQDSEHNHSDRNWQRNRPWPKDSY
T1 sequence (P54289 25-1103, further chain): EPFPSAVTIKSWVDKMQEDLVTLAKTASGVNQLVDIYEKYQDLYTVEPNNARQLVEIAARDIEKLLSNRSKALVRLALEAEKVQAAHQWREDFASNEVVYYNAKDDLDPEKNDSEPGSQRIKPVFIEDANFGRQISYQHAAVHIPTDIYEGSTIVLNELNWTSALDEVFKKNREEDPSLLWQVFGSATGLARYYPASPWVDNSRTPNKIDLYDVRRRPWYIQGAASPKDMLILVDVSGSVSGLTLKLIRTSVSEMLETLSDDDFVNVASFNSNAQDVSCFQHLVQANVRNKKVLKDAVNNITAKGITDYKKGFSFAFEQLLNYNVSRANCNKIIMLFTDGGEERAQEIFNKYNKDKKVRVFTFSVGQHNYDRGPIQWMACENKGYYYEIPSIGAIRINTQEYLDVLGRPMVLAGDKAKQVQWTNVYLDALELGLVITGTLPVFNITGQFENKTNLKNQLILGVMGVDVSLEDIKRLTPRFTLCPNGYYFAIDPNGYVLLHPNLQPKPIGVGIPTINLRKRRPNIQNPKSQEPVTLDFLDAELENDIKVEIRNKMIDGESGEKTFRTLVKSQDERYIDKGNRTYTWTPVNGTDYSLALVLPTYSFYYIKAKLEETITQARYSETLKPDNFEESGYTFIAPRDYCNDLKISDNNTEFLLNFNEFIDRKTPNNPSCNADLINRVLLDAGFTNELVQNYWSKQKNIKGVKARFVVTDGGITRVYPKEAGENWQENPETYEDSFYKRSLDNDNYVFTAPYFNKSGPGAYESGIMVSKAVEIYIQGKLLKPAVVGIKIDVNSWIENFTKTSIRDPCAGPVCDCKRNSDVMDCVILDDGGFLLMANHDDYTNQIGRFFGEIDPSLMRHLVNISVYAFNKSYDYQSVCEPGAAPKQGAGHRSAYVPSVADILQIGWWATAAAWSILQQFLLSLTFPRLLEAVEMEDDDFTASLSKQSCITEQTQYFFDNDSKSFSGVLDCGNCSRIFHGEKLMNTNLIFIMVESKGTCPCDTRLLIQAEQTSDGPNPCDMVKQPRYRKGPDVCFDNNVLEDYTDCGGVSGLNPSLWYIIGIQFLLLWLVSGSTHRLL

As for `Cc1c(-c2ccc(Cl)cc2)c(C(=O)N2CCOC(C)(C)C2)n(C2CCC2)c1C(F)(F)F` [Example 042, [3-(4-Chlorophenyl)-1-cyclobutyl-4-methyl-5-(trifluoromethyl)-1H-pyrrol-2-yl]-(2,2-dimethyl-morpholin-4-yl)-methanone], the inhibition at 3 µM was in the range of 75 to 95%.
Then `Cc1c(-c2ncc(Cl)cn2)c(C(=O)N(C)CCS(C)(=O)=O)n(C(C)C)c1C(F)(F)F` [Example 127, 3-(5-Chloro-pyrimidin-2-yl)-1-isopropyl-N,4-dimethyl-N-(2-methylsulfonyl-ethyl)-5-(trifluoromethyl)-1H-pyrrole-2-carboxylic acid amide], with 30 to 40%; and `CN(Cc1cnc(N(C)C)nc1)C(=O)c1c(-c2ccc(F)cc2)cc(C(F)(F)F)n1CC1CCCO1` (stereo not drawn) [Example 069, N-[(2-Dimethylamino-pyrimidin-5-yl)-methyl]-3-(4-fluorophenyl)-N-methyl-1-(tetrahydro-furan-2-yl-methyl)-5-(trifluoromethyl)-1H-pyrrole-2-carboxylic acid amide], with 75 to 95%; and `Cc1c(-c2ccc(Cl)cc2)c(C(=O)N(C)CCS(C)(=O)=O)n(CC2(N)CC2)c1C(F)(F)F` [Example 093, 1-[(1-Amino-cyclopropyl)-methyl]-3-(4-chlorophenyl)-N,4-dimethyl-N-(2-methylsulfonyl-ethyl)-5-(trifluoromethyl)-1H-pyrrole-2-carboxylic acid amide], with 75 to 95%.
For the compound `CC(C)Cn1c(C(F)(F)F)cc(-c2ccc(F)cc2)c1C(=O)N(C)CC(C)(C)CO` [Example 056, 3-(4-Fluorophenyl)-N-(3-hydroxy-2,2-dimethyl-propyl)-N-methyl-1-(2-methyl-propyl)-5-(trifluoromethyl)-1H-pyrrole-2-carboxylic acid amide], the inhibition at 3 µM was in the range of 75 to 95%.
For the compound `Cc1noc(C2CCN(C(=O)c3c(-c4ccc(Cl)cc4)cc(C(F)(F)F)n3C3CC3)CC2)n1` [Example 029, [3-(4-Chlorophenyl)-1-cyclopropyl-5-(trifluoromethyl)-1H-pyrrol-2-yl]-[4-(3-methyl-[1,2,4]oxadiazol-5-yl)-piperidin-1-yl]-methanone], the inhibition at 3 µM was 75 to 95%.
Under `Cc1c(-c2ccc(Cl)cc2)c(C(=O)N(C)CCS(C)(=O)=O)n(CC2(C)CC2)c1C(F)(F)F` [Example 068, 3-(4-Chlorophenyl)-N,4-dimethyl-1-[(1-methyl-cyclopropyl)-methyl]-N-(2-methylsulfonyl-ethyl)-5-(trifluoromethyl)-1H-pyrrole-2-carboxylic acid amide] stands greater than 95%.
For the compound `CC1(C)CN(C(=O)c2c(-c3ccc(F)cc3)cc(C(F)(F)F)n2CC2CCCO2)CCO1` (stereo not drawn) [Example 080, (2,2-Dimethyl-morpholin-4-yl)-[3-(4-fluorophenyl)-1-(tetrahydro-furan-2-yl-methyl)-5-(trifluoromethyl)-1H-pyrrol-2-yl]-methanone], the inhibition at 3 µM is 75 to 95%.
Then `Cc1cc(CN(C)C(=O)c2c(-c3ccc(F)cc3)cc(C(F)(F)F)n2CC(C)C)no1` [Example 047, 3-(4-Fluorophenyl)-N-methyl-N-[(5-methyl-isoxazol-3-yl)-methyl]-1-(2-methyl-propyl)-5-(trifluoromethyl)-1H-pyrrole-2-carboxylic acid amide], with greater than 95%; and `Cc1cnc(CN(C)C(=O)c2c(-c3ccc(F)cc3)cc(C(F)(F)F)n2CC2CCCO2)cn1` (stereo not drawn) [Example 077, 3-(4-Fluorophenyl)-N-methyl-N-[(5-methyl-pyrazin-2-yl)-methyl]-1-(tetrahydro-furan-2-yl-methyl)-5-(trifluoromethyl)-1H-pyrrole-2-carboxylic acid amide], with 75 to 95%; and `Cc1c(-c2ncc(Cl)cn2)c(C(=O)N(C)Cc2ccnn2C)n(C(C)C)c1C(F)(F)F` [Example 122, 3-(5-Chloro-pyrimidin-2-yl)-1-isopropyl-N,4-dimethyl-N-[(2-methyl-2H-pyrazol-3-yl)-methyl]-5-(trifluoromethyl)-1H-pyrrole-2-carboxylic acid amide], with 40 to 75%.
Under `Cc1cnc(CN(C)C(=O)c2c(-c3ccc(Cl)cc3F)c(C)c(C(F)(F)F)n2C2CC2)cn1` [Example 024, 3-(4-Chloro-2-fluoro-phenyl)-1-cyclopropyl-N,4-dimethyl-N-[(5-methyl-pyrazin-2-yl)-methyl]-5-(trifluoromethyl)-1H-pyrrole-2-carboxylic acid amide] stands greater than 95%; under `CC(C)Cn1c(C(F)(F)F)cc(-c2ccc(F)cc2)c1C(=O)NC1CC1` [Example 066, N-Cyclopropyl-3-(4-fluorophenyl)-1-(2-methyl-propyl)-5-(trifluoromethyl)-1H-pyrrole-2-carboxylic acid amide], 75 to 95%.
Take `Cc1c(-c2ccc(Cl)cc2)c(C(=O)N2CCOC(C)(C)C2)n(C)c1C(F)(F)F` [Example 102, [3-(4-Chlorophenyl)-1,4-dimethyl-5-(trifluoromethyl)-1H-pyrrol-2-yl]-(2,2-dimethyl-morpholin-4-yl)-methanone]: the inhibition at 3 µM lay in the range of 75 to 95%.
On to `Cc1c(-c2ccc(Cl)cc2)c(C(=O)N2CC(O)C2)n(C2CC2)c1C(F)(F)F` [Example 025, [3-(4-Chlorophenyl)-1-cyclopropyl-4-methyl-5-(trifluoromethyl)-1H-pyrrol-2-yl]-(3-hydroxy-azetidin-1-yl)-methanone], for which the inhibition at 3 µM lay within 75 to 95%.
Then `Cc1c(-c2ccc(Cl)cn2)c(C(=O)N(C)C2CCNC2=O)n(C(C)C)c1C(F)(F)F` (stereo not drawn) [Example 119, 3-(5-Chloro-pyridin-2-yl)-1-isopropyl-N,4-dimethyl-N-(2-oxo-pyrrolidin-3-yl)-5-(trifluoromethyl)-1H-pyrrole-2-carboxylic acid amide], with 40 to 75%; and `CN(CC(C)(C)C)C(=O)c1c(-c2ccc(F)cc2)cc(C(F)(F)F)n1CC1CCCO1` (stereo not drawn) [Example 073, N-(2,2-Dimethyl-propyl)-3-(4-fluorophenyl)-N-methyl-1-(tetrahydro-furan-2-yl-methyl)-5-(trifluoromethyl)-1H-pyrrole-2-carboxylic acid amide], with 75 to 95%.
With `CN(CC(C)(C)C)C(=O)c1c(-c2ccc(Cl)cc2)cc(C(F)(F)F)n1CC1CCCO1` (stereo not drawn) [Example 083, 3-(4-Chlorophenyl)-N-(2,2-dimethyl-propyl)-N-methyl-1-(tetrahydro-furan-2-yl-methyl)-5-(trifluoromethyl)-1H-pyrrole-2-carboxylic acid amide], the inhibition at 3 µM was in the range of 75 to 95%.
Then `Cc1c(-c2ccc(Cl)cc2)c(C(=O)N(C)CC(C)(C)C#N)n(C(C)C)c1C(F)(F)F` [Example 106, 3-(4-Chlorophenyl)-N-(2-cyano-2-methyl-propyl)-1-isopropyl-N,4-dimethyl-5-(trifluoromethyl)-1H-pyrrole-2-carboxylic acid amide], with 75 to 95%; and `CC(C)Cn1c(C(F)(F)F)cc(-c2ccc(F)cc2)c1C(=O)N1CCNC(=O)C1` [Example 063, 4-[3-(4-Fluorophenyl)-1-(2-methyl-propyl)-5-(trifluoromethyl)-1H-pyrrole-2-carbonyl]-piperazin-2-one], with 40 to 75%.
Then `Cc1c(-c2ccc(Cl)cc2)c(C(=O)N(C)CCS(C)(=O)=O)n(C2CC2)c1C(F)(F)F` [Example 041, 3-(4-Chlorophenyl)-1-cyclopropyl-N,4-dimethyl-N-(2-methylsulfonyl-ethyl)-5-(trifluoromethyl)-1H-pyrrole-2-carboxylic acid amide], with 75 to 95%.
